Measurements: patent US20090131431A1, “Pyrazolo[3,4-b]pyridine compounds, and their use as a PDE4 inhibitors” (priority 2005, published 2009)

Biological target: T1, PDE4B (human recombinant) (Homo sapiens, UniProt Q07343)
T1 construct: made in house
Assay: Inhibition of PDE4B activity: SPA and/or Fluorescence Polarisation (FP) assay
Format: biochemical
Settings: one reading (n=1) or average of 2 or more readings, read-out: PDE4B pIC50 (±about 0.5) (converted)
Procedure, shortened: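 Human recombinant PDE4B activity measured by SPA with [3H]cAMP at about 10 nM, 1 h at ambient temperature, enzyme set for ≤20% substrate hydrolysis, or by IMAP FP with Fl-cAMP at about 40 nM, 40 min at ambient temperature under linear conditions. Inhibition curves fitted; values reported as pIC50.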

T1 sequence (Q07343 1-564 isoform Q07343-2): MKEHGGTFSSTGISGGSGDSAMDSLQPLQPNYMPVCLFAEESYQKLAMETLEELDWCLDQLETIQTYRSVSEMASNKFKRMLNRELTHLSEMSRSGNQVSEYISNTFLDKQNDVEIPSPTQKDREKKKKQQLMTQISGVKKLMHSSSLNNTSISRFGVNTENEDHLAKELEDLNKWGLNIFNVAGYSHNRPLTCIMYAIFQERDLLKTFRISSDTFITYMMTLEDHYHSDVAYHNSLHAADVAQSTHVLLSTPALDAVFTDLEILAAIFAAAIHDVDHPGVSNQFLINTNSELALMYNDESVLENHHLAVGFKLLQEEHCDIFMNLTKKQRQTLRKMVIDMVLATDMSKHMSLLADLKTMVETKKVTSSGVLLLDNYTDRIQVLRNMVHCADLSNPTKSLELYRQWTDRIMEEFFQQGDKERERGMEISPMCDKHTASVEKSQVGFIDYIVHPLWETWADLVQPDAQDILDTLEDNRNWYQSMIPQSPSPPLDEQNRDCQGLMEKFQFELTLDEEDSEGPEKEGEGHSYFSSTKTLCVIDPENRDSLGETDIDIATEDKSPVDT

| Structure (SMILES) | IC50 [nM] |
| --- | --- |
| CCc1nc2c(cnn2CC)c(NC2CCOCC2)c1CNC(=O)c1ccc2c(=O)[nH][nH]c2c1 [Example 257, N-{[1,6-diethyl-4-(tetrahydro-2H-pyran-4-ylamino)-1H-pyrazolo[3,4-b]pyridin-5-yl]methyl}-3-oxo-2,3-dihydro-1H-indazole-6-carboxamide] | 0.01 to 0.1 |
| CCc1nc2c(cnn2CC)c(NC2CCOCC2)c1CNC(=O)c1ccc2c(c1)CCCS2(=O)=O [Example 258, N-{[1,6-diethyl-4-(tetrahydro-2H-pyran-4-ylamino)-1H-pyrazolo[3,4-b]pyridin-5-yl]methyl}-3,4-dihydro-2H-1-benzothiopyran-6-carboxamide 1,1-dioxide] | 0.01 to 0.1 |
| CCn1ncc2c(NC3CCN(C(N)=O)CC3)c(CNC(=O)c3ccc(S(C)(=O)=O)cc3)c(C)nc21 [Example 259, 4-({1-ethyl-6-methyl-5-[({[4-(methylsulfonyl)phenyl]carbonyl}amino)methyl]-1H-pyrazolo[3,4-b]pyridin-4-yl}amino)-1-piperidinecarboxamide] | 0.126 to 1 |
| CCn1ncc2c(NC3CCN(C(N)=O)CC3)c(CNC(=O)c3ccccc3O)c(C)nc21 [Example 260, 4-{[1-ethyl-5-({[(2-hydroxyphenyl)carbonyl]amino}methyl)-6-methyl-1H-pyrazolo[3,4-b]pyridin-4-yl]amino}-1-piperidinecarboxamide] | 0.01 to 0.1 |
| CCn1ncc2c(NC3CCN(C(N)=O)CC3)c(CNC(=O)c3ccc(NC(C)=O)cc3O)c(C)nc21 [Example 261, 4-({5-[({[4-(acetylamino)-2-hydroxyphenyl]carbonyl}amino)methyl]-1-ethyl-6-methyl-1H-pyrazolo[3,4-b]pyridin-4-yl}amino)-1-piperidinecarboxamide] | 0.01 to 0.1 |
| CCn1ncc2c(NC3CCN(C(N)=O)CC3)c(CNC(=O)c3cccc(NC(C)=O)c3)c(C)nc21 [Example 264, 4-({5-[({[3-(acetylamino)phenyl]carbonyl}amino)methyl]-1-ethyl-6-methyl-1H-pyrazolo[3,4-b]pyridin-4-yl}amino)-1-piperidinecarboxamide] | 0.01 to 0.1 |
| CCn1ncc2c(NC3CCN(C(N)=O)CC3)c(CNC(=O)c3ccc(C)cc3O)c(C)nc21 [Example 265, 4-{[1-ethyl-5-({[(2-hydroxy-4-methylphenyl)carbonyl]amino}methyl)-6-methyl-1H-pyrazolo[3,4-b]pyridin-4-yl]amino}-1-piperidinecarboxamide] | 0.01 to 0.1 |
| CCn1ncc2c(NC3CCN(C(N)=O)CC3)c(CNC(=O)c3ccccc3F)c(C)nc21 [Example 266, 4-{[1-ethyl-5-({[(2-fluorophenyl)carbonyl]amino}methyl)-6-methyl-1H-pyrazolo[3,4-b]pyridin-4-yl]amino}-1-piperidinecarboxamide] | 0.126 to 1 |
| CCn1ncc2c(NC3CCN(C(N)=O)CC3)c(CNC(=O)c3cccc(N4CCCC4=O)c3)c(C)nc21 [Example 267, 4-({1-ethyl-6-methyl-5-[({[3-(2-oxo-1-pyrrolidinyl)phenyl]carbonyl}amino)methyl]-1H-pyrazolo[3,4-b]pyridin-4-yl}amino)-1-piperidinecarboxamide] | 0.01 to 0.1 |
| CCn1ncc2c(NC3CCN(C(N)=O)CC3)c(CNC(=O)c3ccc(C(=O)NC)cc3)c(C)nc21 [Example 268, N-[(4-{[1-(aminocarbonyl)-4-piperidinyl]amino}-1-ethyl-6-methyl-1H-pyrazolo[3,4-b]pyridin-5-yl)methyl]-N′-methyl-1,4-benzenedicarboxamide] | 0.01 to 0.1 |
| CCn1ncc2c(NC3CCN(C(N)=O)CC3)c(CNC(=O)c3ccc(N4CCCCC4)cc3)c(C)nc21 [Example 269, 4-({1-ethyl-6-methyl-5-[({[4-(1-piperidinyl)phenyl]carbonyl}amino)methyl]-1H-pyrazolo[3,4-b]pyridin-4-yl}amino)-1-piperidinecarboxamide] | 0.01 to 0.1 |
| CCn1ncc2c(NC3CCN(C(N)=O)CC3)c(CNC(=O)c3cccc4c3OCC4)c(C)nc21 [Example 270, 4-[(5-{[(2,3-dihydro-1-benzofuran-7-ylcarbonyl)amino]methyl}-1-ethyl-6-methyl-1H-pyrazolo[3,4-b]pyridin-4-yl)amino]-1-piperidinecarboxamide] | 0.01 to 0.1 |
| CCn1ncc2c(NC3CCN(C(N)=O)CC3)c(CNC(=O)c3ccc4c(c3)CCC4)c(C)nc21 [Example 271, 4-[(5-{[(2,3-dihydro-1H-inden-5-ylcarbonyl)amino]methyl}-1-ethyl-6-methyl-1H-pyrazolo[3,4-b]pyridin-4-yl)amino]-1-piperidinecarboxamide] | 0.01 to 0.1 |
| CCn1ncc2c(NC3CCN(C(N)=O)CC3)c(CNC(=O)c3ccc(C(C)(C)C)cc3O)c(C)nc21 [Example 272, 4-({5-[({(4-(1,1-dimethylethyl)-2-hydroxyphenyl]carbonyl}amino)methyl}-1-ethyl-6-methyl-1H-pyrazolo[3,4-b]pyridin-4-yl)amino}-1-piperidinecarboxamide] | 0.01 to 0.1 |
| CCn1ncc2c(NC3CCN(C(N)=O)CC3)c(CNC(=O)c3ccc(C4CCCC4)cc3)c(C)nc21 [Example 273, 4-{[5-({[(4-cyclopentylphenyl)carbonyl]amino}methyl)-1-ethyl-6-methyl-1H-pyrazolo[3,4-b]pyridin-4-yl]amino}-1-piperidinecarboxamide] | 0.01 to 0.1 |
| CCn1ncc2c(NC3CCN(C(N)=O)CC3)c(CNC(=O)c3ccc(C)c4c3OCC4)c(C)nc21 [Example 274, 4-{[1-ethyl-6-methyl-5-({[(4-methyl-2,3-dihydro-1-benzofuran-7-yl)carbonyl]amino}methyl)-1H-pyrazolo[3,4-b]pyridin-4-yl]amino}-1-piperidinecarboxamide] | 0.01 to 0.1 |

Results, then the molecule that gave them:

| IC50 [nM] | Structure (SMILES) |
| --- | --- |
| 0.01 to 0.1 | CCc1nc2c(cnn2CC)c(NC2CCOCC2)c1CNC(=O)c1ccc(C(C)(C)C)cc1O [Example 256, N-{[1,6-diethyl-4-(tetrahydro-2H-pyran-4-ylamino)-1H-pyrazolo[3,4-b]pyridin-5-yl]methyl}-4-(1,1-dimethylethyl)-2-hydroxybenzamide] |
| 0.01 to 0.1 | CCn1ncc2c(NC3CCN(C(N)=O)CC3)c(CNC(=O)c3ccc(C(C)(C)C)cc3)c(C)nc21 [Example 262, 4-({5-[({[4-(1,1-dimethylethyl)phenyl]carbonyl}amino)methyl]-1-ethyl-6-methyl-1H-pyrazolo[3,4-b]pyridin-4-yl}amino)-1-piperidinecarboxamide] |
| 0.01 to 0.1 | CCn1ncc2c(NC3CCN(C(N)=O)CC3)c(CNC(=O)c3ccc(C(C)C)cc3)c(C)nc21 [Example 263, 4-({1-ethyl-6-methyl-5-[({[4-(1-methylethyl)phenyl]carbonyl}amino)methyl]-1H-pyrazolo[3,4-b]pyridin-4-yl}amino)-1-piperidinecarboxamide] |
| 0.01 to 0.1 | CCn1ncc2c(NC3CCOCC3)c(CNC(=O)c3ccccc3O)c(C)nc21 [Example 275, N-{[1-ethyl-6-methyl-4-(tetrahydro-2H-pyran-4-ylamino)-1H-pyrazolo[3,4-b]pyridin-5-yl]methyl}-2-hydroxybenzamide] |
| 0.01 to 0.1 | CCn1ncc2c(NC3CCOCC3)c(CNC(=O)c3ccc(NC(C)=O)cc3O)c(C)nc21 [Example 276, 4-(acetylamino)-N-{[1-ethyl-6-methyl-4-(tetrahydro-2H-pyran-4-ylamino)-1H-pyrazolo[3,4-b]pyridin-5-yl]methyl}-2-hydroxybenzamide] |
| 0.01 to 0.1 | CCn1ncc2c(NC3CCOCC3)c(CNC(=O)c3ccc(C(C)(C)C)cc3)c(C)nc21 [Example 277, 4-(1,1-dimethylethyl)-N-{[1-ethyl-6-methyl-4-(tetrahydro-2H-pyran-4-ylamino)-1H-pyrazolo[3,4-b]pyridin-5-yl]methyl}benzamide] |
| 0.01 to 0.1 | CCn1ncc2c(NC3CCOCC3)c(CNC(=O)c3ccc(C(C)C)cc3)c(C)nc21 [Example 278, N-{[1-ethyl-6-methyl-4-(tetrahydro-2H-pyran-4-ylamino)-1H-pyrazolo[3,4-b]pyridin-5-yl]methyl}-4-(1-methylethyl)benzamide] |
| 0.126 to 1 | CCn1ncc2c(NC3CCOCC3)c(CNC(=O)c3ccc(C(N)=O)cc3)c(C)nc21 [Example 279, N-{[1-ethyl-6-methyl-4-(tetrahydro-2H-pyran-4-ylamino)-1H-pyrazolo[3,4-b]pyridin-5-yl]methyl}-1,4-benzenedicarboxamide] |
| 0.01 to 0.1 | CCn1ncc2c(NC3CCOCC3)c(CNC(=O)c3cccc(NC(C)=O)c3)c(C)nc21 [Example 280, 3-(acetylamino)-N-{[1-ethyl-6-methyl-4-(tetrahydro-2H-pyran-4-ylamino)-1H-pyrazolo[3,4-b]pyridin-5-yl]methyl}benzamide] |
| 0.01 to 0.1 | CCn1ncc2c(NC3CCOCC3)c(CNC(=O)c3ccc(C)cc3O)c(C)nc21 [Example 281, N-{[1-ethyl-6-methyl-4-(tetrahydro-2H-pyran-4-ylamino)-1H-pyrazolo[3,4-b]pyridin-5-yl]methyl}-2-hydroxy-4-methylbenzamide] |
| 0.126 to 1 | CCn1ncc2c(NC3CCOCC3)c(CNC(=O)c3ccccc3F)c(C)nc21 [Example 282, N-{[1-ethyl-6-methyl-4-(tetrahydro-2H-pyran-4-ylamino)-1H-pyrazolo[3,4-b]pyridin-5-yl]methyl}-2-fluorobenzamide] |
| 0.126 to 1 | CCn1ncc2c(NC3CCOCC3)c(CNC(=O)c3ccc(C(=O)NC)cc3)c(C)nc21 [Example 283, N-{[1-ethyl-6-methyl-4-(tetrahydro-2H-pyran-4-ylamino)-1H-pyrazolo[3,4-b]pyridin-5-yl]methyl}-N′-methyl-1,4-benzenedicarboxamide] |
| 0.126 to 1 | CCn1ncc2c(NC3CCOCC3)c(CNC(=O)c3ccc4c(c3)CCC4)c(C)nc21 [Example 284, N-{[1-ethyl-6-methyl-4-(tetrahydro-2H-pyran-4-ylamino)-1H-pyrazolo[3,4-b]pyridin-5-yl]methyl}-2,3-dihydro-1H-indene-5-carboxamide] |
